This passage reports EC50 and CC50 results from patent US9724351B2, “Compounds for the treatment of paramoxyvirus viral infections” (priority 2012, dated 2017).

Some results are limits rather than exact numbers.

In data set [1] the test system is Respiratory Syncytial Virus (RSV) long strain (ATCC#VR-26). Description: RSV Antiviral Assay (CPE reduction assay). The format is cell-based. To be noted: human respiratory syncytial virus, 120 h; HEp-2 cells infected with RSV long strain, 5 days, CCK-8 readout; bins (Table 2: less than 1 μM; Table 3: equal to or higher than 1 μM and less than 50 μM); read-out: 50% effective concentration (EC50). The protocol: CPE reduction assays are performed as described by Sidwell and Huffman et al., Appl. Microbiol. (1971) 22(5):797-801 with slight modifications. HEp-2 cells (ATCC#, CCL-23) are seeded at a density of 1,500 cells/30 μl/well into the 384-well cell plate(s) (Corning#3701) one day prior to the assay. Compounds are added into 384-well cell plates by Labcyte POD 810 Plate Assembler system. Each of the test compounds is provided to duplicate wells of a 384-well cell plate at final concentrations starting from 100 μM or 1 μM using ⅓ stepwise dilutions for 9 points. Quick-thaw Respiratory Syncytial Virus (RSV) long strain (ATCC#VR-26) stock in a 37° C. water bath. Place on ice until ready to use. Viruses are diluted to the concentration of 100 TCID50/30 μl with medium and 30 μl diluted RSV are added into related wells of 384-well cell plates. For each plate, sixteen wells are set aside as uninfected, untreated cell controls (CC), and nine wells per test plate receive virus only as a control for virus replication (VC). The final DMSO concentration of all wells is 1%. Place the plates at 37° C., 5% CO2 for 5 days.
After 5 days incubation, observe the CPE of cells in all wells. […] Six μl of cell counting kit-8 reagent (CCK-8, Dojindo Molecular Technologies Inc., CK04-20) are added to each well, which allows colorimetric assays to determine the number of viable cells through the dehydrogenase activity detection. After 3-4 hour incubation, the absorbance of each well is measured with a spectrophotometric plate reader at 450 nm wavelength, using a 630 nm filter as background according to manufacturer's instruction. The 50% effective concentration (EC50) is calculated by using regression analysis, based on the mean O.D. at each concentration of compound.

Data set [2] can be described thus: Cytotoxicity Determination. The format is cell-based. To be noted: human, HEp-2 cells, without addition of virus, CCK-8 readout, bins (Table 4: greater than 100 μM; Table 5: equal to or less than 100 μM and greater than 10 μM), read-out: 50% cytotoxicity concentration (CC50). The protocol:
In order to determine the compound cytotoxicity, in parallel, each of the compounds is applied to duplicate wells in a 384-well cell plate at serial final concentrations starting from 100 μM using ½ stepwise dilutions for 7 points without addition of virus. Incubate the cells at 37° C., 5% CO2 for 5 days. Add 6 μl CCK-8 into each well and incubate in a CO2 incubator at 37° C. for 3-4 hours. Read the plates to obtain the optical densities which are used to calculate 50% cytotoxicity concentration (CC50).

In the case of `COc1cc(C(=O)NCC(=O)N/N=C/c2csc3ccccc23)ccc1Cl` [Compound 215], in data set [1], the EC50 was in the range of 1 to 50 µM.
Consider `CCOc1ccc(C(=O)NCC(=O)N/N=C/c2csc3ccccc23)cc1OCC` [Compound 231], for which the EC50 in data set [1] fell in the range of 1 to 50 µM. In addition, the CC50 at 5 days in data set [2] was 10 to 100 µM.
For `CCN(CC)c1ccc(C(=O)NCC(=O)N/N=C/c2csc3ccccc23)cc1` [Compound 235], in that order: 1 to 50 µM and above 100 µM.
Consider `CCSc1ccc(C(=O)NCC(=O)N/N=C/c2csc3ccccc23)cc1` [Compound 238], for which, in data set [1], the EC50 was below 1 µM. Besides, in data set [2], the CC50 at 5 days was in the range of 10 to 100 µM.
For `CCCC/C(=N\NC(=O)CNC(=O)c1cc(OC)c(OC)cc1Br)c1csc2ccccc12` [Compound 245] the same measures were 1 to 50 µM and 10 to 100 µM.
Take `CCCC/C(=N\NC(=O)CNC(=O)c1ccc(OC)c(OCC)c1)c1csc2ccccc12` [Compound 246A]: the EC50 in data set [1] was below 1 µM. Also, the CC50 at 5 days in data set [2] lay within 10 to 100 µM.
As to `CCCC/C(=N\NC(=O)CNC(=O)c1cc(OC)c(OC)cc1Cl)c1csc2ccccc12` [Compound 247], the EC50 in data set [1] was in the range of 1 to 50 µM. Also, the CC50 at 5 days in data set [2] is above 100 µM.
In the case of `COCC/C(=N\NC(=O)CNC(=O)c1ccc(OC)c(OC)c1O)c1csc2c(F)cccc12` [Compound 300], the EC50 in data set [1] was below 1 µM. For the same compound, the CC50 at 5 days in data set [2] is 10 to 100 µM.
For `CCOCC/C(=N\NC(=O)CNC(=O)c1ccc(OC)c(OC)c1)c1csc2ccccc12` [Compound 400-1], in data set [1], the EC50 is below 1 µM. Besides, the CC50 at 5 days in data set [2] is above 100 µM.
Take `COc1ccc(C(=O)NCC(=O)N/N=C/c2cc3c(F)cccc3s2)cc1OC` [Compound 400-2]: the EC50 in data set [1] is 1 to 50 µM. In addition, in data set [2], the CC50 at 5 days was 10 to 100 µM.
For `COc1ccc(C(=O)NCC(=O)N/N=C(\C)c2cc3c(F)cccc3s2)cc1OC` [Compound 400-3] the same measures were 1 to 50 µM and above 100 µM.
In the case of `COc1ccc(C(=O)NCC(=O)N/N=C(/CC2CC2)c2csc3ccccc23)cc1OC` [Compound 400-5], the EC50 in data set [1] was in the range of 1 to 50 µM. In addition, the CC50 at 5 days in data set [2] is above 100 µM.
Turning to `COCc1ccc(C(=O)NCC(=O)N/N=C(\C)c2csc3ccccc23)cc1OC` [Compound 400-6], the EC50 in data set [1] was 1 to 50 µM. The CC50 at 5 days in data set [2] is above 100 µM.
For `CCCC/C(=N\NC(=O)CNC(=O)c1ccc(OC)c(OC)c1)c1csc2c(F)cccc12` [Compound 400-7] the same measures were below 1 µM and 10 to 100 µM.
For `COc1ccc(C(=O)NCC(=O)N/N=C(\C)c2csc3ccc(O)cc23)cc1OC` [Compound 400-8] the same measures were 1 to 50 µM and 10 to 100 µM.
As for `CCN(CC)c1ccc(C(=O)NCC(=O)N/N=C(\C)c2csc3ccccc23)cc1N(CC)CC` [Compound 506], in data set [1], the EC50 was 1 to 50 µM.
The same measure, in the same setting: next, `COc1cc(C(=O)NCC(=O)c2ccc(OC)c(-c3ccc(F)c(Cl)c3)n2)ccc1OCC1(N)CC1` [Compound 1307]: 1 to 50 µM.
Regarding `COc1cc(C(=O)NCC(=O)c2ccc(OC)c(-c3ccc(F)c(Cl)c3)n2)ccc1OCCO` [Compound 1310], the EC50 in data set [1] was below 1 µM.
In the case of `COc1cc(C(=O)NCC(=O)c2ccc(OC)c(-c3ccc(F)c(Cl)c3)n2)ccc1OC1CC(N)C1` (centres unmarked) [Compound 1359], the EC50 in data set [1] is below 1 µM.
`COc1ccc(C(=O)NCC(=O)c2ccc(OC)c(-c3cncc4ccccc34)n2)cc1OC` [Compound 1512]: the EC50 in data set [1] fell in the range of 1 to 50 µM.
Turning to `COc1ccc(C(=O)NCC(=O)c2ccc(OC)c(-c3ccccc3-c3ccccc3)n2)cc1OC` [Compound 1523], the EC50 in data set [1] was in the range of 1 to 50 µM.
Still for that read-out and setting: next, `COc1cc(C(=O)NCC(=O)c2ccc(OC)c(-c3ccc(F)c(Cl)c3)n2)ccc1-c1cccnc1` [Compound 2504]: 1 to 50 µM.
For the compound `COc1cc(C(=O)NCC(=O)c2ccc(OC)c(-c3ccc(F)c(Cl)c3)n2)ccc1-c1ccncc1` [Compound 2507], the EC50 in data set [1] fell in the range of 1 to 50 µM.
Consider `C#Cc1cc(C(=O)CNC(=O)c2ccc(OCCO)c(OC)c2)nc(-c2csc3c(F)cccc23)c1` [Compound 4216], for which the EC50 in data set [1] fell in the range of 1 to 50 µM.
